Measured values reported in patent publication US8791072B2 (priority 2011, dated 2014).
“And” between values parts separate entries of the source, which are not always exact repeats. Equal entries are not always repeated. Where no end group is shown, it is not given here.

Columns and labels:
[1] = tested on: neuromuscular junctions in orbicularis oculi muscle; settings: rabbit, in vivo
superior rectus muscle = settings: rabbit, in vivo
neuromuscular junction = settings: in vivo; cited from earlier work
[2] = tested on: neuromuscular junctions in rabbit extraocular muscle; settings: in vivo; cited from earlier work

Substance	combined total muscle neuromuscular junction density, orbicularis oculi muscle [1]	increase of combined total muscle neuromuscular junction density [1]	neuromuscular junction density, preseptal region [1]	neuromuscular junction density, pretarsal region [1]	preseptal neuromuscular junction density relative to control [1]	muscle force in response to electrical stimulation (superior rectus muscle)	return of normal neuromuscular junction activity (neuromuscular junction)	change in number of neuromuscular junctions in the treated area [2]	neuromuscular junction density compared to saline control (in words) [1]	neuromuscular junction density, orbicularis oculi muscle [1]
botulinum toxin A	5.9±0.43 /mm^2	~3 fold	4.4±01 /mm^2 and 2.9±0.4 /mm^2 and 5.23±0.7 /mm^2	4.0±0.21 /mm^2 and 5.7±0.8 /mm^2	between about two and three times greater than control	variable response, with some showing force equal to the saline-treated control muscles	20%	doubling of neuromuscular junctions	–	–
corticotropin releasing factor (SEEPPISLDLTFHLLREVLEMARAEQLAQQAHSNRKLMEII; ends and bridges not checked; UniProt P06850 154-194, looked up) [CRF]	–	–	–	–	–	–	–	–	not significantly different from the density in the control orbicularis oculi muscles	2.39±0.23 /mm^2
